For experiment [1], the system named is A3AR, GSK-3β, cyclin D1, c-myc. Description: Western blot of regulatory proteins in HCT-116 tumor lesions excised from mice. The class given is in vivo. As for the experimental part:
(§1) To detect the level of expression of the A3AR proteins Western blot analysis was performed. Cells were incubated in the presence and absence of IB-MECA (10 nM), MRS1523 (10 nM), Forskolin (50 nM), 8 Br cAMP (100 μM), Cycloheximide 20 μg/ml or MG 132 (20 nM) for different time periods at 37° C. Cells were then rinsed with ice-cold PBS and transferred to ice-cold lysis buffer (TNN buffer, 50 mM Tris buffer pH=7.5, 150 mM NaCl, NP 40). In the experiment examining the effect of trypsin on A3AR expression, cells were incubated with 0.5 ml of 0.25% trypsin for 5 minutes. The trypsinized cells were washed again with ice-cold PBS, harvested by centrifugation and subjected to lysis in TNN buffer. Cell debris was removed by centrifugation for 10 minutes, at 7500 xg. The supernatant was utilized for Western Blot analysis. Protein concentrations were determined using the Bio-Rad protein assay dye reagent. Equal amounts of the sample (50 μg) were separated by SDS-PAGE, using 12% polyacrylamide gels. The resolved proteins were then electroblotted onto nitrocellulose membranes (Schleicher & Schuell, Keene, NH, USA). Membranes were blocked with 1% bovine serum albumin and incubated with the desired primary antibody (dilution 1:1000) for 24 hours at 4° C. Blots were then washed and incubated with a secondary antibody for 1 hour at room temperature. Bands were recorded using BCIP/NBT color development kit (Promega, Madison, W1, USA). Data presented in the different figures are representative of at least three different experiments.
(§2) Colon Carcinoma: Nude/BalbC male, 10-week-old mice were used. HCT-116 Human colon carcinoma cells (1.2×10^6 cells in 100 μL PBS) were inoculated subcutaneously to the flank of the mice. Treatment was initiated when tumors reached a size of ˜150 mm^3. Each group contained 10 mice, the control group treated with vehicle only, while the test group was administered daily orally with IB-MECA (10 μg/kg).
(§3) After 32 days the mice were sacrificed, tumor lesions were excise and protein was extracted for measurements as described above. Tumor size was evaluated by measuring with a caliber width (W) and length (L) and calculated according to the above formula.
(In western blotting, separated proteins are transferred to a membrane and probed.)

In the next experiment the test system is A3AR. The experiment is described as follows: RT-PCR detection of A3AR on human neutrophils. Format: cell-based. The note with it: incubated for 15 minutes at 37° C. As for the experimental part:
Tissue sections (5 μm thick) on slides that, stained by H&E were observed by a pathologist. The neoplastic area and the normal area were detected and each one marked separately. The neoplastic tissue and the normal tissue were collected to different microcentrifuge tubes. The samples were treated with proteinase K at a final concentration of 0.1 mg/ml and incubated at 37° C. for 1 hour to allow for […]. Cells lysate were heated to 95° C. for 15 minutes in order to inactivate DNase and proteinase K. Following centrifugation at 14,000 RPM for 5 minutes, 17 μl of the supernatant was transferred to separate tube and 4 μl of RT mixture. 5 mM dNTPs, 2.5 μM random hexamer, 5 U RNasin, 100 U SuperScript One Step RT-PCR with Platinum Taq (Invitrogene) were added.
The RT reaction was performed at 45° C. for 45 minutes. […]
10×10^6 neutrophil cells isolated from 20 ml of human blood were incubated for 15 minutes with […] of CF101 at 37° C. […] RNA level was quantified using spectrophotometer and […] from each sample were subjected to RT-PCR using SuperScript One Step RT-PCR with Platinum Taq (Invitrogene), as described above in section E., by using the set No II as primers for amplification of 361 bp fragment. RT-PCR products were detected by electrophoresis and the size was verified by comparing with known RNA. […]

The subject of experiment [2] is PKA, PKB/Akt, GSK-3β, β-catenin, cyclin D1, c-myc, NF-κB. The experiment is described as follows: Western blot of cell growth regulatory proteins in B16-F10 melanoma tumor lesions. Format: in vivo, mice. As for the experimental part: as §1
Melanoma: C57BL/6J, male mice (Harlan Laboratories, Jerusalem, Israel) aged 2 months, weighing an average of 25 g were used. B16-F10 (2.5×105) melanoma cells were subcutaneously (s.c.) injected to the flank of the mice. IB-MECA at a dose of 100 μg/kg body weight was administered orally once daily, starting 24 hours after tumor cells' inoculation. The control group was treated daily, orally, with the vehicle only. Mice were sacrificed after 15 days, tumor lesions were excise and protein was extracted for measurements as described above. The tumor size (width (W) and length (L)) was measured with a caliber and calculated according to the following formula: Tumor Size =(W)2xL/2. Each group contained 15 mice and the study was repeated 3 times.

Experiment [3] relates to HCT-116 human colon carcinoma. Description: HCT-116 human colon carcinoma development in mice. The class given is in vivo. To be noted: mice inoculated with HCT-116, 10 μg/kg orally daily. As for the experimental part:
as §2, §3

The test system of experiment [4] is PKAc, PKB/Akt, β-catenin, c-myc, cyclin D1, NF-κB, GSK-3β. The experiment is described as follows: Immunoblot analysis of protein extracts of HCT-116 human colon carcinoma cells. Format: cell-based. To be noted: HCT-116 cells, compared to control. On the procedure:
as §1
The effect of IB-MECA on key proteins downstream to A3AR activation in HCT-116 human colon carcinoma cells was also examined in a manner similar to that performed with melanoma cells (see above). FIG. 7 presents Immunoblot analysis of protein extracts derived from colon carcinoma cell, wherein treatment with IB-MECA (right lane) caused down-regulation of PKAc, PKB/Akt, β-catenin, c-myc and cyclin D1 and NF-κB and up-regulation of GSK-3β expression level as compared to control (left lane).

Molecules are shown by their SMILES.

For the compound `CNC(=O)[C@H]1O[C@@H](n2cnc3c(NCc4cccc(I)c4)ncnc32)[C@H](O)[C@@H]1O` [IB-MECA, 1-deoxy-1-[6[[(3-iodophenyl)methyl]amino]-9H-purine-9-yl]-N-methyl-β-D-ribofura-nuronaminde], in experiment [1], the A3AR level entry is “down-regulation”, the GSK-3β expression level result is “up-regulation”, the c-myc level entry is listed as “decrease” and the “cyclin D1 level” value is reported as “decrease”. In the experiment with A3AR, the “expression of A3AR (RT-PCR)” value is recorded as “increase”. Also, in experiment [2], the NF-κB level result is recorded as “down-regulated”, the PKA level entry is recorded as “decreased”, the PKB/Akt level result was “decreased” and the c-myc level result was “down-regulated”. Further, in experiment [2], the “cyclin D1 level” value is “down-regulated”, the “total GSK-3β level” value was “increase” and the β-catenin level result is recorded as “decrease”. Also, the “development of colon carcinoma (tumor size)” value in experiment [3] is given as “markedly suppressed”. Besides, in experiment [4], the GSK-3β expression level result is reported as “up-regulation”, the NF-κB level result is on record as “down-regulation”, the PKAc level entry is on record as “down-regulation” and the PKB/Akt level entry is listed as “down-regulation”. Also, in experiment [4], the c-myc level result is listed as “down-regulation”, the “cyclin D1 level” value is “down-regulation” and the β-catenin level result is recorded as “down-regulation”.

Values taken from US20040229246A1, “Diagnostic markers for therapeutic treatment” (Can-Fite Biopharam Ltd., priority 2002, published 2004).
